# Experimental data taken from ChEMBL document CHEMBL3244053, “Structural modification study of bis(substituted aminoalkylamino)anthraquinones. An evaluation of the relationship of the [2-[(2-hydroxyethyl)amino]ethyl]amino side chain with antineoplastic activity” (1979).
# Activity calls are given as the source filed them. The rule behind the calls is not given here.
# Key:
# B16 [1] = test: Antineoplastic activity against mouse B16 cells allografted in BDF1 mouse assessed as survival at 30 mg/kg qd for 9 days; format: functional, organism-based; set-up: dose 30 mg/kg
# B16 [2] = test: Antineoplastic activity against mouse B16 cells allografted in BDF1 mouse at 30 mg/kg qd for 9 days relative to control; format: functional
# B16 [3] = test: Antineoplastic activity against mouse B16 cells allografted in BDF1 mouse assessed as survival at 15 mg/kg qd for 9 days; format: functional, organism-based; set-up: dose 15 mg/kg
# B16 [4] = test: Antineoplastic activity against mouse B16 cells allografted in BDF1 mouse at 15 mg/kg qd for 9 days relative to control; format: functional
# B16 [5] = test: Antineoplastic activity against mouse B16 cells allografted in BDF1 mouse assessed as survival at 7.5 mg/kg qd for 9 days; format: functional, organism-based; set-up: dose 7.5 mg/kg
# B16 [6] = test: Antineoplastic activity against mouse B16 cells allografted in BDF1 mouse at 7.5 mg/kg qd for 9 days relative to control; format: functional
# B16 [7] = test: Antineoplastic activity against mouse B16 cells allografted in BDF1 mouse assessed as survival at 3.75 mg/kg qd for 9 days; format: functional, organism-based; set-up: dose 3.75 mg/kg
# B16 [8] = test: Antineoplastic activity against mouse B16 cells allografted in BDF1 mouse at 3.75 mg/kg qd for 9 days relative to control; format: functional
# B16 [9] = test: Antineoplastic activity against mouse B16 cells allografted in BDF1 mouse assessed as survival at 1.88 mg/kg qd for 9 days; format: functional, organism-based; set-up: dose 1.88 mg/kg
# B16 [10] = test: Antineoplastic activity against mouse B16 cells allografted in BDF1 mouse at 1.88 mg/kg qd for 9 days relative to control; format: functional
# Colon 26 [11] = test: Antineoplastic activity against mouse Colon 26 cells allografted in CDF1 mouse assessed as survival at 15 mg/kg qd for 9 days; format: functional, organism-based; set-up: dose 15 mg/kg
# Colon 26 [12] = test: Antineoplastic activity against mouse Colon 26 cells allografted in CDF1 mouse at 15 mg/kg qd for 9 days relative to control; format: functional
# Colon 26 [13] = test: Antineoplastic activity against mouse Colon 26 cells allografted in CDF1 mouse assessed as survival at 7.5 mg/kg qd for 9 days; format: functional, organism-based; set-up: dose 7.5 mg/kg
# Colon 26 [14] = test: Antineoplastic activity against mouse Colon 26 cells allografted in CDF1 mouse at 7.5 mg/kg qd for 9 days relative to control; format: functional
# Colon 26 [15] = test: Antineoplastic activity against mouse Colon 26 cells allografted in CDF1 mouse assessed as survival at 3.75 mg/kg qd for 9 days; format: functional, organism-based; set-up: dose 3.75 mg/kg
# Colon 26 [16] = test: Antineoplastic activity against mouse Colon 26 cells allografted in CDF1 mouse at 3.75 mg/kg qd for 9 days relative to control; format: functional
# Colon 26 [17] = test: Antineoplastic activity against mouse Colon 26 cells allografted in CDF1 mouse assessed as survival at 1.88 mg/kg qd for 9 days; format: functional, organism-based; set-up: dose 1.88 mg/kg
# Colon 26 [18] = test: Antineoplastic activity against mouse Colon 26 cells allografted in CDF1 mouse at 1.88 mg/kg qd for 9 days relative to control; format: functional
# L1210 [19] = test: Antineoplastic activity against mouse L1210 cells allografted in CDF1 mouse assessed as survival at 15 mg/kg qd for 9 days; format: functional, organism-based; set-up: dose 15 mg/kg
# L1210 [20] = test: Antineoplastic activity against mouse L1210 cells allografted in CDF1 mouse at 15 mg/kg qd for 9 days relative to control; format: functional
# L1210 [21] = test: Antineoplastic activity against mouse L1210 cells allografted in CDF1 mouse assessed as survival at 7.5 mg/kg qd for 9 days; format: functional, organism-based; set-up: dose 7.5 mg/kg
# L1210 [22] = test: Antineoplastic activity against mouse L1210 cells allografted in CDF1 mouse at 7.5 mg/kg qd for 9 days relative to control; format: functional
# L1210 [23] = test: Antineoplastic activity against mouse L1210 cells allografted in CDF1 mouse assessed as survival at 3.75 mg/kg qd for 9 days; format: functional, organism-based; set-up: dose 3.75 mg/kg
# L1210 [24] = test: Antineoplastic activity against mouse L1210 cells allografted in CDF1 mouse at 3.75 mg/kg qd for 9 days relative to control; format: functional
# L1210 [25] = test: Antineoplastic activity against mouse L1210 cells allografted in CDF1 mouse assessed as survival at 1.88 mg/kg qd for 9 days; format: functional, organism-based; set-up: dose 1.88 mg/kg
# L1210 [26] = test: Antineoplastic activity against mouse L1210 cells allografted in CDF1 mouse at 1.88 mg/kg qd for 9 days relative to control; format: functional
# P388 [27] = test: Antineoplastic activity against mouse P388 cells allografted in CDF1 mouse assessed as survival at 20 mg/kg qd for 9 days; format: functional, organism-based; set-up: dose 20 mg/kg
# P388 [28] = test: Antineoplastic activity against mouse P388 cells allografted in CDF1 mouse at 20 mg/kg qd for 9 days relative to control; format: functional
# P388 [29] = test: Antineoplastic activity against mouse P388 cells allografted in CDF1 mouse assessed as survival at 10 mg/kg qd for 9 days; format: functional, organism-based; set-up: dose 10 mg/kg
# P388 [30] = test: Antineoplastic activity against mouse P388 cells allografted in CDF1 mouse at 10 mg/kg qd for 9 days relative to control; format: functional
# P388 [31] = test: Antineoplastic activity against mouse P388 cells allografted in CDF1 mouse assessed as survival at 5 mg/kg qd for 9 days; format: functional, organism-based; set-up: dose 5 mg/kg
# P388 [32] = test: Antineoplastic activity against mouse P388 cells allografted in CDF1 mouse at 5 mg/kg qd for 9 days relative to control; format: functional
# P388 [33] = test: Antineoplastic activity against mouse P388 cells allografted in CDF1 mouse assessed as survival at 2.5 mg/kg qd for 9 days; format: functional, organism-based; set-up: dose 2.5 mg/kg
# P388 [34] = test: Antineoplastic activity against mouse P388 cells allografted in CDF1 mouse at 2.5 mg/kg qd for 9 days relative to control; format: functional
smiles,measurement,setting,value
O=C1c2ccccc2C(=O)c2c(NCCNCCO)ccc(O)c21,Activity,B16 [1],Active
same,T/C,B16 [2],326%
same,Activity,B16 [3],Active
same,T/C,B16 [4],271%
same,Activity,B16 [5],Active
same,T/C,B16 [6],254%
same,Activity,B16 [7],Active
same,T/C,B16 [8],201%
same,Activity,B16 [9],Active
same,T/C,B16 [10],157%
same,Activity,Colon 26 [11],Active
same,T/C,Colon 26 [12],182%
same,Activity,Colon 26 [13],Active
same,T/C,Colon 26 [14],196%
same,Activity,Colon 26 [15],Active
same,T/C,Colon 26 [16],177%
same,Activity,Colon 26 [17],Active
same,T/C,Colon 26 [18],162%
same,Activity,L1210 [19],Active
same,T/C,L1210 [20],151%
same,Activity,L1210 [21],Active
same,T/C,L1210 [22],193%
same,Activity,L1210 [23],Active
same,T/C,L1210 [24],147%
same,Activity,L1210 [25],Active
same,T/C,L1210 [26],136%
same,Activity,P388 [27],Active
same,T/C,P388 [28],178%
same,Activity,P388 [29],Active
same,T/C,P388 [30],342%
same,Activity,P388 [31],Active
same,T/C,P388 [32],226%
same,Activity,P388 [33],Active
same,T/C,P388 [34],216%
